Measurements reported in patent publication US6388127B1, “Process for preparing cyclic thioamides” (Pfizer INC, priority 1999, dated 2002).

Structure (SMILES): O=C1CSCCN1c1ccc(Cl)c(Cl)c1 [Example 1, 4-(3,4-Dichloro-phenyl)-thiomorpholin-3-one]
- melting point: 81 to 83 °C
